Test results as given in ChEMBL document CHEMBL1138300, “Tris-azaaromatic quaternary ammonium salts: Novel templates as antagonists at nicotinic receptors mediating nicotine-evoked dopamine release” (Bioorg Med Chem Lett, 2007).

Columns and labels:
[1] = target: Neuronal acetylcholine receptor subunit alpha-7 (Rattus norvegicus) (UniProt Q05941); assay: Displacement of [3H]MLA from alpha-7 nAChR in rat brain membrane at 100 uM; format: cell membranes
[2] = Antagonist activity at nAChR in rat striatal slices assessed as inhibition of nicotine-evoked [3H]dopamine release at 100 uM; format: functional; conditions: for inhibition at 100 µM: Rattus norvegicus
[3] = target: Neuronal acetylcholine receptor; alpha4/beta2 (Rattus norvegicus) (UniProt P09483+P12390); assay: Displacement of [3H]NIC from alpha-4-beta-2 nAChR in rat brain membrane at 100 uM; format: cell membranes
[4] = Antagonist activity at nAChR in rat striatal slices assessed as inhibition of nicotine-evoked [3H]dopamine release; format: functional

Chain of Neuronal acetylcholine receptor subunit alpha-7 (Rattus norvegicus) (Q05941 whole entry): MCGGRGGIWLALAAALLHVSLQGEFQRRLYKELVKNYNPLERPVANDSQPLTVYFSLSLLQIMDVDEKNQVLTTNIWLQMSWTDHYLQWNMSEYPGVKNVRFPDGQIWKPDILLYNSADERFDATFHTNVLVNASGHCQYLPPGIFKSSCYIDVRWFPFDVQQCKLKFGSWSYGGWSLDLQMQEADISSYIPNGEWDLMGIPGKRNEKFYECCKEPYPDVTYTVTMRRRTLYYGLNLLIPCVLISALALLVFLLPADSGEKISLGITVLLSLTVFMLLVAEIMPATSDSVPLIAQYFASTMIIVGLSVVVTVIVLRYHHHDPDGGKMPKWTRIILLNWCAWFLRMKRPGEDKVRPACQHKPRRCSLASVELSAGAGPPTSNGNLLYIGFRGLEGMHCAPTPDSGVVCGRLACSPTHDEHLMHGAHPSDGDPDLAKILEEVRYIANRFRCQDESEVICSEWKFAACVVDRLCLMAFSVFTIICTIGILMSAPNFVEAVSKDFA

SMILES: c1ccc2c[n+](CCCCCc3cc(CCCCC[n+]4ccc5ccccc5c4)cc(CCCCC[n+]4ccc5ccccc5c4)c3)ccc2c1
- inhibition [1]: 2.5%
- inhibition at 100 µM [2]: 28%
- inhibition [3]: 8.4%

SMILES: Cc1cc[n+](CCCCCc2cc(CCCCC[n+]3ccc(C)cc3)cc(CCCCC[n+]3ccc(C)cc3)c2)cc1
- inhibition [1]: 0%
- inhibition at 100 µM [2]: 37%
- inhibition [3]: 6%

SMILES: Cc1ccc[n+](CCCCCCCCCCCC[n+]2cccc(C)c2)c1.[Br-].[Br-]
- IC50 [4]: 2 nM
- Imax [2]: 68%

SMILES: c1ccc2c(c1)ccc[n+]2CCCCCc1cc(CCCCC[n+]2cccc3ccccc32)cc(CCCCC[n+]2cccc3ccccc32)c1
- inhibition [1]: 6.8%
- inhibition at 100 µM [2]: 8%
- inhibition [3]: 5.7%

SMILES: Cc1cc(C)c[n+](CCCC#Cc2cc(C#CCCC[n+]3cc(C)cc(C)c3)cc(C#CCCC[n+]3cc(C)cc(C)c3)c2)c1
- inhibition [1]: 0%
- inhibition at 100 µM [2]: 27%
- inhibition [3]: 8.9%

SMILES: Cc1cccc[n+]1CCCC#Cc1cc(C#CCCC[n+]2ccccc2C)cc(C#CCCC[n+]2ccccc2C)c1.[Br-].[Br-].[Br-]
- inhibition [1]: 0%
- IC50 [4]: 4 nM
- Imax [2]: 50%
- inhibition at 100 µM [2]: 51%
- inhibition [3]: 4.5%

SMILES: Cc1cc[n+](CCCC#Cc2cc(C#CCCC[n+]3ccc(C)cc3)cc(C#CCCC[n+]3ccc(C)cc3)c2)cc1
- inhibition [1]: 0%
- inhibition at 100 µM [2]: 32%
- inhibition [3]: 21%

SMILES: CN1CCC[C@H]1c1ccc[n+](CCCCCc2cc(CCCCC[n+]3cccc([C@@H]4CCCN4C)c3)cc(CCCCC[n+]3cccc([C@@H]4CCCN4C)c3)c2)c1
- inhibition [1]: 7.9%
- inhibition at 100 µM [2]: 26%
- inhibition [3]: 81%

SMILES: CCCCCCCCCCCC[n+]1cccc(C)c1.[I-]
- IC50 [4]: 30 nM
- Imax [2]: 62%

SMILES: Cc1cc(C)c[n+](CCCCCc2cc(CCCCC[n+]3cc(C)cc(C)c3)cc(CCCCC[n+]3cc(C)cc(C)c3)c2)c1
- inhibition [1]: 6.5%
- inhibition at 100 µM [2]: 39%
- inhibition [3]: 11%

SMILES: Cc1cc[n+](CCCC#Cc2cc(C#CCCC[n+]3ccc(C)c(C)c3)cc(C#CCCC[n+]3ccc(C)c(C)c3)c2)cc1C
- inhibition [1]: 1.8%
- inhibition at 100 µM [2]: 18%
- inhibition [3]: 4%

SMILES: c1ccc(-c2ccc[n+](CCCCCc3cc(CCCCC[n+]4cccc(-c5ccccc5)c4)cc(CCCCC[n+]4cccc(-c5ccccc5)c4)c3)c2)cc1
- inhibition [1]: 19%
- inhibition at 100 µM [2]: 6%
- inhibition [3]: 14%

SMILES: C(#Cc1cc(C#CCCC[n+]2ccc3ccccc3c2)cc(C#CCCC[n+]2ccc3ccccc3c2)c1)CCC[n+]1ccc2ccccc2c1
- inhibition [1]: 4.5%
- inhibition at 100 µM [2]: 44%
- inhibition [3]: 9.2%

SMILES: C(#Cc1cc(C#CCCC[n+]2cccc(-c3ccccc3)c2)cc(C#CCCC[n+]2cccc(-c3ccccc3)c2)c1)CCC[n+]1cccc(-c2ccccc2)c1
- inhibition [1]: 39%
- inhibition at 100 µM [2]: 29%
- inhibition [3]: 15%

SMILES: C(#Cc1cc(C#CCCC[n+]2cccc3ccccc32)cc(C#CCCC[n+]2cccc3ccccc32)c1)CCC[n+]1cccc2ccccc21
- inhibition [1]: 21%
- inhibition at 100 µM [2]: 29%
- inhibition [3]: 7%

SMILES: CCCCc1ccc[n+](CCCCCc2cc(CCCCC[n+]3cccc(CCCC)c3)cc(CCCCC[n+]3cccc(CCCC)c3)c2)c1
- inhibition [1]: 4.4%
- inhibition at 100 µM [2]: 68%
- inhibition [3]: 6.2%

SMILES: CCCCc1ccc[n+](CCCC#Cc2cc(C#CCCC[n+]3cccc(CCCC)c3)cc(C#CCCC[n+]3cccc(CCCC)c3)c2)c1
- inhibition [1]: 30%
- inhibition at 100 µM [2]: 28%
- inhibition [3]: 6.8%

SMILES: Cc1ccc[n+](CCCCCc2cc(CCCCC[n+]3cccc(C)c3)cc(CCCCC[n+]3cccc(C)c3)c2)c1.[Br-].[Br-].[Br-]
- inhibition [1]: 1.2%
- IC50 [4]: 2 nM
- Imax [2]: 50%
- inhibition at 100 µM [2]: 58%
- inhibition [3]: 14%

SMILES: CN1CCC[C@H]1c1ccc[n+](CCCC#Cc2cc(C#CCCC[n+]3cccc([C@@H]4CCCN4C)c3)cc(C#CCCC[n+]3cccc([C@@H]4CCCN4C)c3)c2)c1.[Br-].[Br-].[Br-]
- inhibition [1]: 4.2%
- Imax [2]: 50%
- inhibition at 100 µM [2]: 59%
- inhibition [3]: 44%

SMILES: Cc1ccc[n+](CCCC#Cc2cc(C#CCCC[n+]3cccc(C)c3)cc(C#CCCC[n+]3cccc(C)c3)c2)c1.[Br-].[Br-].[Br-]
- inhibition [1]: 0%
- IC50 [4]: 0.2 nM
- Imax [2]: 67%
- inhibition at 100 µM [2]: 40%
- inhibition [3]: 10%

SMILES: Cc1cc[n+](CCCCCc2cc(CCCCC[n+]3ccc(C)c(C)c3)cc(CCCCC[n+]3ccc(C)c(C)c3)c2)cc1C
- inhibition [1]: 0.2%
- inhibition at 100 µM [2]: 50%
- inhibition [3]: 9.3%

SMILES: Cc1cccc[n+]1CCCCCc1cc(CCCCC[n+]2ccccc2C)cc(CCCCC[n+]2ccccc2C)c1
- inhibition [1]: 0%
- inhibition at 100 µM [2]: 27%
- inhibition [3]: 8.6%
